Measurements taken from patent US5464838A, “Aminocarboxylic acid derivatives having antiallergic/antiasthmatic effect and a process for their preparation” (Asta Medica Aktiengesellschaft, priority 1992, dated 1995).

Assays:
[1] = system: histamine-precontracted trachea; assay: histamine-precontracted trachea model (after Foster)
[2] = system: allergically induced bronchospasm; assay: allergically induced bronchospasm in the guinea pig (modified Konzett-Rossler bronchospasmolysis); assay type: in vivo; conditions: Cavia porcellus, iv, 0.25 h, test substance intravenously, ovalbumin-triggered bronchial constriction 15 minutes later, read-out: inhibitory effect (ID50) in allergically induced bronchospasm
Excerpt: The compounds of the invention are characterized by good antiallergic and antiasthmatic effect.
The test model used to determine these values was a modification of the bronchospasmolysis experiment described by Konzett and Rossler (1).
The animals were narcoticized with urethane (1.5 g/kg i.p.). Trachea and v. jugularis were exposed by means of a skin incision. A tracheal cannula (Our own construction) was fitted to permit the intravenous application of propanolol, ovalbumin and a test substances, and which also permitted artificial respiration (Starling Pump, Braun Melsungen) and measurement of the intratracheal pressure (pressure uptake: Venous Pressure Transducer, Statham, type W 101 connected to a bridge amplifier, Hellige and Multicorder 6-channel ink plotter, Watanabe, type: WA 621-1). The entire preparation was completed after about 15 minutes. During the subsequent experiment the animals were ventilated with 40 breaths per minute and a volume of about 1 ml room air/100 g body weight. The intratracheal pressure was adjusted by this means to 10-15 cm water column. After a habituation phase of about 30 minutes, the test substances were administered intravenously. Propanolol was administered 10 minutes later. […] The resultant increase in intratracheal pressure was recorded on the plotter for at least 15 minutes.

## CNCCC(CCC(=O)O)n1nc(Cc2ccc(Cl)cc2)c2ccccc2c1=O (stereo not shown) [Example 3, 4-(4-chlorobenzyl)-2-(5-methylamino-1-carboxy-3-pentyl)1(2H) -phthalazinone]
[1]
  IC50: 3.86 µM
[2]
  ED50: 9.9 µg/kg

## CNCCCC(CC(=O)O)n1nc(Cc2ccc(Cl)cc2)c2ccccc2c1=O (stereo not shown) [Example 6, 4-(4-chlorobenzyl)-2-[5-methylamino-1-carboxy-t-2-pentyl]-1(2H) -phthalazinone]
[1]
  IC50: 35.5 µM
[2]
  ED50: 0.8 µg/kg
